Patent US12180197B2, “GLP-1R modulating compounds” (Gilead Sciences, Inc., priority 2021, dated 2024)

How the values were obtained:
GLP-1R [1] = target: T1, GLP-1R (Homo sapiens, UniProt P43220); experiment: GLP-1R Activation - cAMP Assay 1; type: cell-based; conditions: cAMP increase in CHO cells stably expressing GLP-1R; 30 minutes incubation; 10 point dose response
Description: GLP-1R Activation—cAMP Assay 1
GLP-1R activation by a compound of the present disclosure was quantified by measuring cAMP increase in CHO cells stably expressing GLP-1R (MultiSpan product #C1267-1a). The cells were harvested and plated in growth medium (DMEM/F-12 (Corning product #10-090-CV) supplemented with 10% FBS (HyClone product #SH30071-03), penicillin/streptomycin (Corning product #30-002CI) and 10 µg/ml puromycin (Gibco product #A11138-03)) at 1,000 cells/well in a 384-well plate (Greiner product #781080). The cells were then incubated overnight at 37° C., 5% CO2. The next day, the medium was removed and the cells were washed with DPBS (Corning product #21-031-CM) before adding the assay medium (HBSS, Corning product #21-023-CV) with 20 mM Hepes (Gibco product #15630-080) and 0.1% BSA (Rockland Immunochemicals product #BSA-1000)). Following the medium change, the cells were incubated for 1 hour at 37° C., 5% CO2. The tested GLP-1 compound was added to the cells in a 10 point dose response followed by a 30 minutes incubation at 37° C., 5% CO2. cAMP concentration increase was then detected using Cisbio's cAMP Gs Dynamic Kit (product #62AM4PEC) according to the manufacturer's protocol. The response was plotted against the log of the agonist concentration and fitted to a sigmoidal equation to determine the EC50.

GLP-1R [2] = target: T1, GLP-1R; experiment: GLP-1R Activation - cAMP Assay 2; type: cell-based; conditions: cAMP increase in CHO cells stably expressing GLP-1R; pre-spotted agonists; assay buffer or 100% Human Plasma (not given); 30 minutes
Description: GLP-1R Activation—cAMP Assay 2
GLP-1R activation by small molecule agonists is quantified by measuring cAMP increase in CHO cells stably expressing GLP-1R (MultiSpan product #C1267-1a). 50 nL of agonists are pre-spotted in a 10 point dose response onto 384-well plate (Corning product #CL3826) using the Labcyte Echo System. The cells are harvested and plated in assay buffer (HBSS (Corning product #21-023-CV) with 20 mM Hepes (Gibco product #15630-080) and 0.1% BSA (Rockland Immunochemicals product #BSA-1000)) or 100% Human Plasma (Innovative Research product #50-643-396) at 1,000 cells/well, 10 μL/well, onto the pre-spotted plates. The cells are then incubated for 30 minutes at 37° C., 5% CO2. cAMP concentration increase is then detected using Cisbio's cAMP Gs Dynamic Kit (product #62AM4PEC) according to the manufacturer's protocol. The response is plotted against the log of the agonist concentration and fitted to a sigmoidal equation to determine the EC50.

T1 sequence (P43220 24-463): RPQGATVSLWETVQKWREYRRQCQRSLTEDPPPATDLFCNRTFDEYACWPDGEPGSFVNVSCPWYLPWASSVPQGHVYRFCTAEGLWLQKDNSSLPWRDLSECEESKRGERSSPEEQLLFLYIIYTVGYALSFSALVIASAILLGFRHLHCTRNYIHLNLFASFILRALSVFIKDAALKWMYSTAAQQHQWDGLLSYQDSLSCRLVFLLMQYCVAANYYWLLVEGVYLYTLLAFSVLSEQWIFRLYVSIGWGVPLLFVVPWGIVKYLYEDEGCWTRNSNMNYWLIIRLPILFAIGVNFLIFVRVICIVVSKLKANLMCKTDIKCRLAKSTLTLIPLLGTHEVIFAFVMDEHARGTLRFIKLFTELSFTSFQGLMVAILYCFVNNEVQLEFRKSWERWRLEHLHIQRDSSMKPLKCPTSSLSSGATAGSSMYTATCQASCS

SMILES | EC50 (GLP-1R [1]) | EC50 (GLP-1R [2])
COCCn1c(CN2CCC(c3cccc(OCc4ccc(-c5ccccc5)cc4)n3)CC2)nc2ccc(C(=O)O)cc21 [Example 12, 2-((4-(6-([1,1′-biphenyl]-4-ylmethoxy)pyridin-2-yl)piperidin-1-yl)methyl)-1-(2-methoxyethyl)-1H-benzo[d]imidazole-6-carboxylic acid] | 1.07 µM | 
C#Cc1ccc(COc2cccc(C3CCN(Cc4nc5ccc(C(=O)O)cc5n4CCOC)CC3)n2)cc1 [Example 13, 2-((4-(6-((4-ethynylbenzyl)oxy)pyridin-2-yl)piperidin-1-yl)methyl)-1-(2-methoxyethyl)-1H-benzo[d]imidazole-6-carboxylic acid] | 0.0222 µM | 
COCCn1c(CN2CCC(c3cccc(OCc4c(F)c(F)c(F)c(F)c4F)n3)CC2)nc2ccc(C(=O)O)cc21 [Example 14, 1-(2-methoxyethyl)-2-((4-(6-((perfluorophenyl)methoxy)pyridin-2-yl)piperidin-1-yl)methyl)-1H-benzo[d]imidazole-6-carboxylic acid] | > 0.1 µM | 
Cn1cc(-c2ccc(COc3cccc(C4CCN(Cc5nc6ccc(C(=O)O)cc6n5C[C@@H]5CCO5)CC4)n3)c(F)c2)cn1 [Example 15, 2-[[4-[6-[[2-fluoro-4-(1-methylpyrazol-4-yl)phenyl]methoxy]-2-pyridyl]-1-piperidyl]methyl]-3-[[(2S)-oxetan-2-yl]methyl]benzimidazole-5-carboxylic acid] |  | 0.0005 µM
COCCn1c(CN2CCC(c3cccc(OCc4ccc(-c5cnn(C(F)F)c5)cc4F)n3)CC2)nc2ccc(C(=O)O)cc21 [Example 16, 2-((4-(6-((4-(1-(difluoromethyl)-1H-pyrazol-4-yl)-2-fluorobenzyl)oxy)pyridin-2-yl)piperidin-1-yl)methyl)-1-(2-methoxyethyl)-1H-benzo[d]imidazole-6-carboxylic acid] |  | 0.0118 µM
COCCn1c(CN2CCC(c3cccc(OCc4ccc(C#N)c5ccccc45)n3)CC2)nc2ccc(C(=O)O)cc21 [Example 25, 2-((4-(6-((4-cyanonaphthalen-1-yl)methoxy)pyridin-2-yl)piperidin-1-yl)methyl)-1-(2-methoxyethyl)-1H-benzo[d]imidazole-6-carboxylic acid] | 0.0113 µM | 
COCCn1c(CN2CCC(c3cccc(OCc4ccc5cnccc5c4)n3)CC2)nc2ccc(C(=O)O)cc21 [Example 26, 2-[[4-[6-(6-isoquinolylmethoxy)-2-pyridyl]-1-piperidyl]methyl]-3-(2-methoxyethyl)benzimidazole-5-carboxylic acid] | 0.0413 µM | 
COCCn1c(CN2CCC(c3cccc(OCc4ccc5nonc5c4)n3)CC2)nc2ccc(C(=O)O)cc21 [Example 27, 2-((4-(6-(benzo[c][1,2,5]oxadiazol-5-ylmethoxy)pyridin-2-yl)piperidin-1-yl)methyl)-1-(2-methoxyethyl)-1H-benzo[d]imidazole-6-carboxylic acid] | 0.0668 µM | 
COCCn1c(CN2CCC(c3cccc(OCc4ccc5ncsc5c4)n3)CC2)nc2ccc(C(=O)O)cc21 [Example 28, 2-((4-(6-(benzo[d]thiazol-6-ylmethoxy)pyridin-2-yl)piperidin-1-yl)methyl)-1-(2-methoxyethyl)-1H-benzo[d]imidazole-6-carboxylic acid] | 0.0608 µM | 
COCCn1c(CN2CCC(c3cccc(OCc4ccc(C(C)(C)O)cc4)n3)CC2)nc2ccc(C(=O)O)cc21 [Example 29, 2-((4-(6-((4-(2-hydroxypropan-2-yl)benzyl)oxy)pyridin-2-yl)piperidin-1-yl)methyl)-1-(2-methoxyethyl)-1H-benzo[d]imidazole-6-carboxylic acid] | 1.44 µM | 
COCCn1c(CN2CCC(c3cccc(OCc4ccc(COC)cc4)n3)CC2)nc2ccc(C(=O)O)cc21 [Example 30, 1-(2-methoxyethyl)-2-((4-(6-((4-(methoxymethyl)benzyl)oxy)pyridin-2-yl)piperidin-1-yl)methyl)-1H-benzo[d]imidazole-6-carboxylic acid] | 0.297 µM | 
COCCn1c(CN2CCC(c3cccc(OCc4ccc(Cl)c5occc45)n3)CC2)nc2ccc(C(=O)O)cc21 [Example 31, 2-((4-(6-((7-chlorobenzofuran-4-yl)methoxy)pyridin-2-yl)piperidin-1-yl)methyl)-1-(2-methoxyethyl)-1H-benzo[d]imidazole-6-carboxylic acid] | 0.029 µM | 
COCCn1c(CN2CCC(c3cccc(OCc4cccc5occc45)n3)CC2)nc2ccc(C(=O)O)cc21 [Example 32, 2-((4-(6-(benzofuran-4-ylmethoxy)pyridin-2-yl)piperidin-1-yl)methyl)-1-(2-methoxyethyl)-1H-benzo[d]imidazole-6-carboxylic acid] | 0.261 µM | 
COCCn1c(CN2CCC(c3cccc(OCc4cccc5[nH]cnc45)n3)CC2)nc2ccc(C(=O)O)cc21 [Example 33, 2-((4-(6-((1H-benzo[d]imidazol-4-yl)methoxy)pyridin-2-yl)piperidin-1-yl)methyl)-1-(2-methoxyethyl)-1H-benzo[d]imidazole-6-carboxylic acid] | > 10 µM | 
COCCn1c(CN2CCC(c3cccc(OCc4cccc5scnc45)n3)CC2)nc2ccc(C(=O)O)cc21 [Example 34, 2-((4-(6-(benzo[d]thiazol-4-ylmethoxy)pyridin-2-yl)piperidin-1-yl)methyl)-1-(2-methoxyethyl)-1H-benzo[d]imidazole-6-carboxylic acid] | 0.0198 µM | 
COCCn1c(CN2CCC(c3cccc(OCc4ccc5ccncc5c4)n3)CC2)nc2ccc(C(=O)O)cc21 [Example 35, 2-((4-(6-(isoquinolin-7-ylmethoxy)pyridin-2-yl)piperidin-1-yl)methyl)-1-(2-methoxyethyl)-1H-benzo[d]imidazole-6-carboxylic acid] | 0.0485 µM | 
COCCn1c(CN2CCC(c3cccc(OCc4ccc5cccnc5c4)n3)CC2)nc2ccc(C(=O)O)cc21 [Example 36, 1-(2-methoxyethyl)-2-((4-(6-(quinolin-7-ylmethoxy)pyridin-2-yl)piperidin-1-yl)methyl)-1H-benzo[d]imidazole-6-carboxylic acid] | 0.124 µM | 
COCCn1c(CN2CCC(c3cccc(OCc4c(F)cc(C(N)=O)cc4F)n3)CC2)nc2ccc(C(=O)O)cc21 [Example 37, 2-((4-(6-((4-carbamoyl-2,6-difluorobenzyl)oxy)pyridin-2-yl)piperidin-1-yl)methyl)-1-(2-methoxyethyl)-1H-benzo[d]imidazole-6-carboxylic acid] | 2.2 µM | 
COCCn1c(CN2CCC(c3cccc(OCc4ccc(C5CC5)cc4)n3)CC2)nc2ccc(C(=O)O)cc21 [Example 38, 2-((4-(6-((4-cyclopropylbenzyl)oxy)pyridin-2-yl)piperidin-1-yl)methyl)-1-(2-methoxyethyl)-1H-benzo[d]imidazole-6-carboxylic acid] | 0.0583 µM | 
COCCn1c(CN2CCC(c3cccc(OCc4cc5cn[nH]c5cc4F)n3)CC2)nc2ccc(C(=O)O)cc21 [Example 39, 2-((4-(6-((6-fluoro-1H-indazol-5-yl)methoxy)pyridin-2-yl)piperidin-1-yl)methyl)-1-(2-methoxyethyl)-1H-benzo[d]imidazole-6-carboxylic acid] | > 10 µM | 
COCCn1c(CN2CCC(c3cccc(OCc4ccc(C#N)c5cccnc45)n3)CC2)nc2ccc(C(=O)O)cc21 [Example 42, 2-((4-(6-((5-cyanoquinolin-8-yl)methoxy)pyridin-2-yl)piperidin-1-yl)methyl)-1-(2-methoxyethyl)-1H-benzo[d]imidazole-6-carboxylic acid] | 0.0066 µM | 
COCCn1c(CN2CCC(c3cccc(OCc4ccc5c(c4)COC5=O)n3)CC2)nc2ccc(C(=O)O)cc21 [Example 43, 1-(2-Methoxyethyl)-2-((4-(6-((1-oxo-1,3-dihydroisobenzofuran-5-yl)methoxy)pyridin-2-yl)piperidin-1-yl)methyl)-1H-benzo[d]imidazole-6-carboxylic acid] | 0.345 µM | 
COCCn1c(CN2CCC(c3cccc(OCc4ccc5c(c4)C(=O)OC5)n3)CC2)nc2ccc(C(=O)O)cc21 [Example 44, 1-(2-methoxyethyl)-2-((4-(6-((3-oxo-1,3-dihydroisobenzofuran-5-yl)methoxy)pyridin-2-yl)piperidin-1-yl)methyl)-1H-benzo[d]imidazole-6-carboxylic acid] | 0.109 µM | 
